Key:
[1] = tested on: participants with SSc-RP; experiment: Adverse events and serious adverse events (safety, tolerability); format: in vivo
Excerpt: An AE is any event, side effect, or other untoward medical occurrence that occurs in conjunction with the use of a medicinal product in humans, whether or not considered to have a causal relationship to this treatment.
Severity of AEs will be graded by the Investigator as one of: • Mild (Grade 1): A type of AE that is usually transient and may require only minimal treatment or therapeutic intervention.
An SAE is an AE occurring during any study phase (i.e., baseline, treatment, washout, or follow-up), and at any dose of the study drug (active or placebo), that fulfills one or more of the following: • Results in death • It is immediately life-threatening • It requires in participant hospitalization or prolongation of existing hospitalization • It results in persistent or significant disability or incapacity • Results in a congenital abnormality or birth defect • It is an important medical event that may jeopardize the participant or may require medical intervention to prevent one of the outcomes listed above.
Treatment-emergent AEs (TEAEs) are defined as AEs that occur or worsen after the dose of study drug. If the timing of the start of an AE could not be determined unambiguously from the start or end dates provided, it will be assumed to be a TEAE. An AE is considered related if the relationship to either of the study drug has been indicated as possibly or probably or definite related by the investigator. An AE leading to study withdrawal is defined as an AE that cause a subject early terminated from the study. AEs will be identified as emerging in the following parts: • TEAEs for Part A will be those that started during Part A (i.e., from the first dose in Part A to end of follow up of Part A). • TEAEs for Part B will be those that started during Part B (i.e., from the first dose in Part B to end of follow-up of Part B).
Adverse events were coded using the most current version of the MedDRA® Version 22.0 or higher. The analysis of AEs was based on the concept of treatment emergent AEs. Treatment emergent AEs were tabulated by treatment group and included the number of participants for whom the event occurred, the severity, and relationship to study drug. Treatment emergent AEs (TEAEs) leading to discontinuation and SAEs with onset after the start of study drug were also summarized. All AEs and SAEs (including those with onset or worsening before the start of study drug) through the end of the study were listed.

[2] = tested on: participants with SSc-RP; experiment: Average daily Raynaud's Condition Score (RCS); format: in vivo, human; design: key to Average Daily RCS, Mean / Average Daily RCS, Median / Average Daily RCS, Change from Baseline, Mean / Average Daily RCS, Change from Baseline, Median / Average daily RCS, Baseline, Mean / Average daily RCS, Baseline, Median / Mean RCS at baseline: RCS rated on a 0-10 cm VAS scale; details: for Average Daily RCS, Change from Baseline, Mean / Average Daily RCS, Change from Baseline, Median / Average Daily RCS, Percent Change from Baseline, Mean / Average Daily RCS, Percent Change from Baseline, Median / Average Daily RCS, Mean / Average Daily RCS, Median / Average Daily RCS (dosing period), Mean / Average Daily RCS (dosing period), Median / Average daily RCS, Baseline, Mean / Average daily RCS, Baseline, Median: ITT Part A; for Average Daily RCS, Mean / Average Daily RCS, Median: dosing period
Excerpt: The RCS is based on how much difficulty participants had with Raynaud's today, how many attacks the participant had, and how long they lasted. In addition participants were and will be asked to consider how much pain, numbness, or other symptoms the Raynaud's caused in fingers (including painful sores), and how much the Raynaud's along affected the use of hand today (VAS 0-10 cm scale).
The absolute change in average daily RCS from baseline to the end of each dosing period was and will be a secondary outcome variable. The sponsor-developed participant-informed diary has been and will be used to record data. The average daily RCS is defined as the total RCS divided by the number of days with available diary data of each dosing period. Total RCS during screening period divided by the number of days with available data will be used as baseline for the analysis of all periods. If there are multiple daily RCS scores, the latest daily RCS will be used. The variable will be calculated similar to frequency data as before.

[3] = tested on: participants with SSc-RP; experiment: Pain score recorded during weekly RP attacks (11-point Likert scale); format: in vivo, human; details: for Average Pain Score [Mean (SD)]: on treatment, N = 24
Excerpt: The absolute change in average pain score (11-point Likert scale) of weekly RP attacks from baseline to the end of each Dosing Period will be a secondary outcome variable. The sponsor-developed participant-informed diary will be used to record data. The average pain score of weekly RP attacks is defined as the total pain scores divided by total number of RP attacks within the last 7 days of each dosing period. Average of the last 7 days of screening assessments will be used as baseline for the analysis of all periods. The variable will be calculated similar to frequency data as before.

[4] = excluding outliers, dose Cilnidipine 10 mg, Tadalafil 5 mg, or 10 mg + 5 mg
[5] = excluding outliers, dose Cilnidipine 20 mg, or 20 mg + Tadalafil 5 mg
[6] = excluding outliers, pooled 10 mg and 20 mg Cilnidipine arms (combination: + Tadalafil 5 mg)
[7] = excluding outliers, pooled Cilnidipine 10 mg and Cilnidipine 10 mg + Tadalafil 5 mg
[8] = excluding outliers, pooled Cilnidipine 20 mg and Cilnidipine 20 mg + Tadalafil 5 mg
[9] = Pooled Cilnidipine 10 mg and Cilnidipine 10 mg + Tadalafil 5 mg
[10] = Pooled Cilnidipine 20 mg and Cilnidipine 20 mg + Tadalafil 5 mg

COCCOC(=O)C1=C(C)NC(C)=C(C(=O)OC/C=C/c2ccccc2)C1c1cccc([N+](=O)[O-])c1 (stereo not drawn) [Cilnidipine, cilnidipine]
Safety: number of AE ([1]; Cilnidipine 20 mg, HA-mild, n = 8): 1AE (HA-mild; 1
Safety: withdrawals ([1]; Cilnidipine 20 mg, n = 8): 1AE (HA-mild; 1
Safety: number of AE ([1]; Pooled Cilnidipine, in combo with T, n = 9): 1AE (in combo with T);
Safety: withdrawals ([1]; Pooled Cilnidipine, n = 9): no withdrawals
incidence of Adverse Events / overall adverse event rate ([1]; all patients who received any dose of cilnidipine (n=17)): 17%
tolerability ([1]; cilnidipine 10 mg and 20 mg, alone or in combination with tadalafil): well tolerated
severity grade of adverse events reported ([1]; patients treated with cilnidipine): only mild (Grade 1)
Safety: grade of Adverse Events (AEs) ([1]; summary of data (Table S)): Grade 1 Adverse
Safety: treatment D/Cs (discontinuations) ([1]; summary of data (Table S)): No treatment D/Cs
Average Daily RCS, Change from Baseline, Mean ([2]; Cilnidipine 10 mg): −0.98
Average Daily RCS, Change from Baseline, Median ([2]; Cilnidipine 10 mg): −0.98
Average Daily RCS, Percent Change from Baseline, Mean ([2]; Cilnidipine 10 mg): −35.74%
Average Daily RCS, Percent Change from Baseline, Median ([2]; Cilnidipine 10 mg): −35.74%
Average Daily RCS, Mean ([2]; Cilnidipine 10 mg): 1.76
Average Daily RCS, Median ([2]; Cilnidipine 10 mg): 1.76
Average Daily RCS, Change from Baseline, Mean ([2]; Cilnidipine 20 mg): −0.45
Average Daily RCS, Change from Baseline, Median ([2]; Cilnidipine 20 mg): −0.45
Average Daily RCS, Percent Change from Baseline, Mean ([2]; Cilnidipine 20 mg): −17.16%
Average Daily RCS, Percent Change from Baseline, Median ([2]; Cilnidipine 20 mg): −17.16%
Average Daily RCS, Mean ([2]; Cilnidipine 20 mg): 2.90
Average Daily RCS, Median ([2]; Cilnidipine 20 mg): 2.90
Daily RCS Change ([2]; Cilnidipine (20 mg) (n = 3)): −28%
Mean % reduction in RCS ([2]; Cilnidipine (20 mg) (n = 3)): 27.9%
Mean RCS at baseline ([2]; Cilnidipine (20 mg) (n = 3)): 3.5
Average Daily RCS (dosing period), Mean [2, 4]: 1.76
Average Daily RCS (dosing period), Median [2, 4]: 1.76
Average Daily RCS, Change from Baseline, Mean [2, 4]: −0.98
Average Daily RCS, Change from Baseline, Median [2, 4]: −0.98
Average Daily RCS, Percent Change from Baseline, Mean [2, 4]: −35.74%
Average Daily RCS, Percent Change from Baseline, Median [2, 4]: −35.74%
Average daily RCS, Baseline, Mean [2, 4]: 2.74
Average daily RCS, Baseline, Median [2, 4]: 2.74
Average Daily RCS (dosing period), Mean [2, 5]: 2.90
Average Daily RCS (dosing period), Median [2, 5]: 2.90
Average Daily RCS, Change from Baseline, Mean [2, 5]: −0.45
Average Daily RCS, Change from Baseline, Median [2, 5]: −0.45
Average Daily RCS, Percent Change from Baseline, Mean [2, 5]: −17.16%
Average Daily RCS, Percent Change from Baseline, Median [2, 5]: −17.16%
Average daily RCS, Baseline, Mean [2, 5]: 3.35
Average daily RCS, Baseline, Median [2, 5]: 3.35
Average Daily RCS (dosing period), Mean [2, 6]: 2.52
Average Daily RCS (dosing period), Median [2, 6]: 1.76
Average Daily RCS, Change from Baseline, Mean [2, 6]: −0.63
Average Daily RCS, Change from Baseline, Median [2, 6]: −0.98
Average Daily RCS, Percent Change from Baseline, Mean [2, 6]: −23.35%
Average Daily RCS, Percent Change from Baseline, Median [2, 6]: −35.74%
Average daily RCS, Baseline, Mean [2, 6]: 3.15
Average daily RCS, Baseline, Median [2, 6]: 2.80
Average Daily RCS (dosing period), Mean [2, 7]: 2.43
Average Daily RCS (dosing period), Median [2, 7]: 1.76
Average Daily RCS, Change from Baseline, Mean [2, 7]: −1.64
Average Daily RCS, Change from Baseline, Median [2, 7]: −1.51
Average Daily RCS, Percent Change from Baseline, Mean [2, 7]: −41.77%
Average Daily RCS, Percent Change from Baseline, Median [2, 7]: −36.47%
Average daily RCS, Baseline, Mean [2, 7]: 4.07
Average daily RCS, Baseline, Median [2, 7]: 2.85
Average Daily RCS (dosing period), Mean [2, 8]: 3.60
Average Daily RCS (dosing period), Median [2, 8]: 3.82
Average Daily RCS, Change from Baseline, Mean [2, 8]: −1.08
Average Daily RCS, Change from Baseline, Median [2, 8]: −0.59
Average Daily RCS, Percent Change from Baseline, Mean [2, 8]: −18.93%
Average Daily RCS, Percent Change from Baseline, Median [2, 8]: −20.71%
Average daily RCS, Baseline, Mean [2, 8]: 4.68
Average daily RCS, Baseline, Median [2, 8]: 3.74
Average Daily RCS, Change from Baseline, Mean [2, 9]: −1.64
Average Daily RCS, Change from Baseline, Median [2, 9]: −1.51
Average Daily RCS, Percent Change from Baseline, Mean [2, 9]: −41.77%
Average Daily RCS, Percent Change from Baseline, Median [2, 9]: −36.47%
Average Daily RCS, Mean [2, 9]: 2.43
Average Daily RCS, Median [2, 9]: 1.76
Average Daily RCS, Change from Baseline, Mean [2, 10]: −1.08
Average Daily RCS, Change from Baseline, Median [2, 10]: −0.59
Average Daily RCS, Percent Change from Baseline, Mean [2, 10]: −18.93%
Average Daily RCS, Percent Change from Baseline, Median [2, 10]: −20.71%
Average Daily RCS, Mean [2, 10]: 3.60
Average Daily RCS, Median [2, 10]: 3.82
Daily RCS Change ([2]; Pooled Cilnidipine (n = 7), this value n = 3): 12% (n = 3)
Average Daily RCS, Change from Baseline, Mean ([2]; Pooled Cilnidipine): −0.63
Average Daily RCS, Change from Baseline, Median ([2]; Pooled Cilnidipine): −0.98
Average Daily RCS, Percent Change from Baseline, Mean ([2]; Pooled Cilnidipine): −23.35%
Average Daily RCS, Percent Change from Baseline, Median ([2]; Pooled Cilnidipine): −35.74%
Average Daily RCS, Mean ([2]; Pooled Cilnidipine): 2.52
Average Daily RCS, Median ([2]; Pooled Cilnidipine): 1.76
Average Pain Score, Change From Baseline, Mean ([3]; Cilnidipine 10 mg (n = 4)): 0.47
Average Pain Score, Percent Change from Baseline, Mean ([3]; Cilnidipine 10 mg (n = 4)): 11.76%
Average Pain Score [Mean (SD)] ([3]; Cilnidipine 10 mg (n = 4)): 2.82 (2.268)
Average Pain Score [Mean (SD)] ([3]; Cilnidipine 20 mg (n = 3)): 1.28 (1.993)
Average Pain Score, Change From Baseline, Mean ([3]; Cilnidipine (20 mg) (n = 3)): −0.47
Average Pain Score, Percent Change from Baseline, Mean ([3]; Cilnidipine (20 mg) (n = 3)): −26.89%
Average Raynaud's Pain ([3]; Cilnidipine (20 mg) (n = 3)): 12%
Mean pain level at baseline ([3]; Cilnidipine (20 mg) (n = 3)): 2.3
Mean percent change in pain score from baseline ([3]; Cilnidipine (20 mg) (n = 3)): −11.8%
Average Raynaud's Pain ([3]; Pooled Cilnidipine (n = 7)): −27%

CN1CC(=O)N2[C@H](c3ccc4c(c3)OCO4)c3[nH]c4ccccc4c3C[C@@H]2C1=O [Tadalafil, tadalafil]
Safety: worst AE by group ([1]; in vivo): Worst AE in tadalafil
Average Daily RCS (dosing period), Mean [2, 4]: 4.46
Average Daily RCS (dosing period), Median [2, 4]: 4.46
Average Daily RCS, Change from Baseline, Mean [2, 4]: −1.58
Average Daily RCS, Change from Baseline, Median [2, 4]: −1.58
Average Daily RCS, Percent Change from Baseline, Mean [2, 4]: −26.18%
Average Daily RCS, Percent Change from Baseline, Median [2, 4]: −26.18%
Average daily RCS, Baseline, Mean [2, 4]: 6.04
Average daily RCS, Baseline, Median [2, 4]: 6.04
Average Daily RCS, Change from Baseline, Mean ([2]; Tadalafil 5 mg): −0.67
Average Daily RCS, Change from Baseline, Median ([2]; Tadalafil 5 mg): −0.67
Average Daily RCS, Percent Change from Baseline, Mean ([2]; Tadalafil 5 mg): −11.76%
Average Daily RCS, Percent Change from Baseline, Median ([2]; Tadalafil 5 mg): −11.76%
Average Daily RCS, Mean ([2]; Tadalafil 5 mg): 7.05
Average Daily RCS, Median ([2]; Tadalafil 5 mg): 7.05
Average Pain Score, Change From Baseline, Mean ([3]; Tadalafil 5 mg (n = 4)): 0.37
Average Pain Score, Percent Change from Baseline, Mean ([3]; Tadalafil 5 mg (n = 4)): 17.20%
Average Pain Score [Mean (SD)] ([3]; Tadalafil 5 mg (n = 4)): 5.84 (4.768)

— patent publication US20240358693A1, “METHODS OF TREATING PAIN” (Aisa Pharma, Inc., priority 2023, published 2024)
